Test results reported in patent publication US8119641B2, “1H-furo[3,2-C]pyrazole compounds useful as kinase inhibitors” (Nerviano Medical Sciences S.R.L., priority 2006, dated 2012).

Columns and labels:
Aurora-2 = molecular target: T1, Aurora-2 (Homo sapiens, UniProt O14965); test: Inhibition assay of Aurora-2 activity (SPA); type: biochemical
T1 sequence (O14965 1-403): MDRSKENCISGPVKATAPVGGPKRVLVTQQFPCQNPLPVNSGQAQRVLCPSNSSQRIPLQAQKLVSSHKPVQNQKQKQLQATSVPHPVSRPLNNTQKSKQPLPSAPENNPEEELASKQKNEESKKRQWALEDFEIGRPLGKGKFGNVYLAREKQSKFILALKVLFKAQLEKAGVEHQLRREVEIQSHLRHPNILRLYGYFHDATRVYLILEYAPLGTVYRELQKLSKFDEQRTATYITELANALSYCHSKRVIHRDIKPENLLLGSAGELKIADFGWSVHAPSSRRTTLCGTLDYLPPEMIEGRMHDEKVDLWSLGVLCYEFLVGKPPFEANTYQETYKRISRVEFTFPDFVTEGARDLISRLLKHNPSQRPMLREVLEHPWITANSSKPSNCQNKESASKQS
Description: The inhibiting activity and the potency of selected compounds is determined through a method of assay based on the use of the SPA technology (Amersham Pharmacia Biotech).
The assay consists of the transfer of radioactivity labelled phosphate moiety by the kinase to a biotinylated substrate. The resulting 33P-labelled biotinylated product is allowed to bind to streptavidin-coated SPA beads (biotin capacity 130 pmol/mg), and light emitted was measured in a scintillation counter.
Inhibition Assay of Aurora-2 Activity
Kinase reaction: 8 μM biotinylated peptide (4 repeats of LRRWSLG), 10 μM ATP (0.5 uCi P^33γ-ATP), 7.5 ng Aurora 2, inhibitor in a final volume of 30 μl buffer (HEPES 50 mM pH 7.0, MgCl2 10 mM, 1 mM DTT, 0.2 mg/mL BSA, 3 μM orthovanadate) were added to each well of a 96 U bottom well plate. After 60 minutes at room temperature incubation, reaction was stopped and biotinylated peptide captured by adding 100 μl of bead suspension.
Stratification: 100 μl of CsCl 5 M were added to each well and let stand 4 hour before radioactivity was counted in the Top-Count instrument.
IC50 determination: inhibitors were tested at different concentrations ranging from 0.0015 to 10 μM. […]

[1] = system: human colon cancer cell line HCT-116; test: In vitro cell proliferation assay; type: cell-based; conditions: HCT-116, 72 hours of treatment, read-out: Cell Antiproliferation IC50
Description: The compounds of the invention were further tested, in vitro to assess the anti-proliferative effect onto cell cultures.
In Vitro Cell Proliferation Assay
The human colon cancer cell line HCT-116 was seeded at 5000 cells/cm^2 in 24 wells plate (Costar) using F12 medium (Gibco) supplemented with 10% FCS (EuroClone, Italy) 2 mM L-glutamine and 1% penicillin/streptomycin and maintained at 37° C., 5% CO2 and 96% relative humidity. The following day, plates were treated in duplicates with 5 ul of an appropriate dilution of compounds starting from a 10 mM stock in DMSO. Two untreated control wells were included in each plate. After 72 hours of treatment, medium was withdrawn and cells detached from each well using 0.5 mL of 0.05% (w/v) Trypsin, 0.02% (w/v) EDTA (Gibco) Samples were diluted with 9.5 mL of Isoton (Coulter) and counted using a Multisizer 3 cell counter (Beckman Coulter). Data were evaluated as percent of the control wells, % of CTR=(Treated−Blank)/(Control−Blank). IC50 values were calculated by LSW/Data Analysis using Microsoft Excel sigmoidal curve fitting.

IC50 (Aurora-2): 6 nM
IC50 [1]: 5 nM
Compound: CC(C)(NC(=O)c1cc2[nH]nc(NC(=O)c3ccccc3NC(=O)c3ccc[nH]3)c2o1)c1ccccc1 [(1), 3-{2-[(1H-Pyrrole-2-carbonyl)-amino]-benzoylamino}-1H-furo[3,2-c]pyrazole-5-carboxylic acid (1-methyl-1-phenyl-ethyl)-amide]
